According to patent US8916137B2, “Monofunctional carbocyanine dyes for in vivo and in vitro imaging” (The General Hospital Corporation, priority 2008, dated 2014):

Columns and labels:
[1] = cited from earlier work; for λem: as indicated on www.gelifesciences.com
[2] = as indicated on www.gelifesciences.com; cited from earlier work
[3] = Photostability (dye photobleaching under irradiation); format: physicochemical; settings: for photobleached: after 60 minutes of irradiation at 620 nm, PBS pH 7.0, absorbance matched (FIG. 4); for photobleaching: irradiated for an hour at 620 nm, PBS pH 7.0, A620 nm<0.1 (FIG. 7)
Description: Photostability data were collected on a Horiba Jobin Yvon Fluorolog-3 spectrofluorometer (Edison, N.Y.) equipped with a 450 W xenon lamp (Ushio inc. Japan). Dye photobleaching was observed by monitoring the fluorescence emission of absorbance matched dye samples (absorbance <0.1) at an excitation wavelength 620 nm for 60 minutes. […] Thus, CyAm-5 acid has 28% better photostability than Cy5.
Dye samples with the same absorption (A620 nm<0.1) were irradiated for an hour at 620 nm. Both bio-conjugatable new dyes, CyAm-5 acid and CycloCyAm-5 acid with photobleaching of 30% and 12%, respectively, were more photostable than Cy5 (45%).

[4] = Absorption spectra and extinction coefficients of the fluorophores; format: physicochemical; settings: PBS, pH 7.0
Description: Absorption spectra and extinction coefficients of the fluorophores were obtained on a Varian Cary 50-Bio UV-visible spectrophotometer. Extinction coefficients were measured in phosphate-buffered saline (PBS), 10 mM phosphate buffer pH 7.0, […] potassium chloride and 137 mM sodium chloride and were averaged over at least three sets of parallel experiments. For each trail, 2-3 mg of the HPLC-purified dyes were weighed on a Mettler AT201 analytical balance with an error of ±0.01 mg and were dissolved in deionized water using a 10 mL volumetric flask to prepare the stock solutions.
(§1) FIG. 9 summarizes the optical properties of CyAl-5 and CyAl-5.5. Spectra were obtained in phosphate buffered solution, pH 7.0. The extinction coefficients, at the dye absorption maxima, were performed in triplicate. Emission spectra were excited at 620 nm for CyAl-5 and 640 nm for CyAl-5.5. CyAl-5 and CyAl-5.5, Cy5 and Cy5.5 were used as fluorescence standards, respectively. The data are the average of at least 8 replicates and errors were <5%.

[5] = Emission spectra and fluorescence quantum yield; format: physicochemical; settings: PBS, pH 7.0
Description: Emission spectra were collected on a Varian Cary Eclipse fluorescence spectrophotometer. Quantum yield measurements were performed on at least eight trails for each dye derivative with maximum absorption for each sample less than 0.1, using Cy5 as a standard (Φ=0.27) (Mujumdar, R. B., Ernst, L. A., Mujumdar, S. R., Lewis, C. J., and Waggoner, A. S. (1993) Cyanine dye labeling reagents: sulfoindocyanine succinimidyl esters. Bioconjug. Chem. 4, 105-11). The standard deviation for both the extinction coefficient and quantum yield measurements is less than 5%.
as §1

CHO cells = assay: Fluorescence labeling and imaging of azido-sugar modified CHO cells by click reaction; format: cell-based, Chinese hamster; settings: fixed CHO cells
Description: Chinese hamster ovary (CHO) cells were maintained in a 5% CO2, water-saturated atmosphere and grown in F12 HAMS medium supplemented with 10% FBS, 1% penstrep and 1% L-glutamine. For biolabeling experiments, the cells were incubated for 2-3 days in the regular medium or medium supplemented with 100 μM Ac4ManNAc (Molecular probes) in an eight-well LabTek II chamber slide (Nunc). The medium was gently aspirated, and the cells were fixed at −20° C. by methanol for 10 min and then acetone for 1 min. […] Fluorescent images were captured on a Nikon Eclipse TE2000-S fluorescence microscope with 40× objective equipped with a Photometrics Cascade 512B CCD camera using excitation and emission filters from Chroma Technology. […]
Cells incubated with azido-sugar supplemented media (top) or unsupplimented media (bottom) are presented after treatment with CyAm-5 alkyne in the presence of Cu(I)/TBTA as catalyst. Cell nuclei stained with DAPI colored blue (left), fluorescence signal from CyAm-5 alkyne colored red (center) and the merged images (right) are shown. […]
FIGS. 6A-6B show fluorescent imaging of CHO cells labeled with CyAm-5 alkyne and controls. […] Cell nuclei stained with DAPI, fluorescence of labeled CyAm-5 alkyne and merge figures of the two above are shown in column left, middle and right, respectively. […]

Row | Compound | photobleached [3] | photobleaching [3] | λem [1] | λabs [2] | other results
1 | CCN1/C(=C/C=C/C=C/C2=[N+](CCCCCC(=O)O)c3ccc(S(=O)(=O)O)cc3C2(C)C)C(C)(C)c2cc(S(=O)(=O)[O-])ccc21 [Cy5] | 54% | 45% | 664 nm | 646 nm | quantum yield of standard (Φ) ([1]; Cy5 used as standard, literature value): 0.27
2 | C#Cc1cccc(NC(=O)CCC(/C=C/C2=[N+](CC)c3ccc(S(=O)(=O)O)cc3C2(C)C)=C\C=C2\N(CC)c3ccc(S(=O)(=O)O)cc3C2(C)C)c1 [CyAm-5 alkyne] |  |  |  |  | fluorescence signal of cells bearing azido sialic acid versus control cells (CHO cells; 20 μM dye, Cu(I) catalyst (FIG. 5)): increased fluorescence signal; conditions under which enhancement of fluorescence signal is observed (CHO cells; with or without Cu(I), TBTA, azido-sugar (FIG. 6A-B)): only observed in the presence of both catalyst Cu(I) and azido glycans
3 | Cy5.5 |  |  | 693 nm | 673 nm | 

Further lines, with some results ahead:

Row | photobleached [3] | photobleaching [3] | Compound | λem [1] | λabs [2] | other results
4 | 42% | 30% | CCN1/C(=C/C=C(/C=C/C2=[N+](CC)c3ccc(S(=O)(=O)O)cc3C2(C)C)CCC(=O)Nc2ccc(C(=O)O)cc2)C(C)(C)c2cc(S(=O)(=O)O)ccc21 [CyAm-5 acid] |  |  | absorption maximum [4]: 642 nm; emission maximum [5]: 658 nm; better photostability / less photobleaching compared to Cy5 ([3]; after an hour irradiation at 620 nm (FIG. 4)): 28%
5 |  | 12% | CC1(C)C2=C(/C=C(/C=C3\CCC[N+]4=C3C(C)(C)c3cc(S(=O)(=O)O)ccc34)CCC(=O)Nc3ccc(C(=O)O)cc3)CCCN2c2ccc(S(=O)(=O)O)cc21 [CycloCyAm-5 acid] |  |  | 
